Data: patent publication US20220331303A1, “USE OF AN OREXIN 2 RECEPTOR AGONIST FOR THE TREATMENT OF EXCESSIVE SLEEPINESS” (Takeda Pharmaceutical Company Limited, priority 2019, published 2022)
“Also recorded” adds a separate entry of the source. Where two headings read alike, the source gives them in different places.

Test: Plasma PK of Compound A after a single 9-hour IV infusion in sleep-deprived healthy male subjects
Assay type: in vivo, human
Conditions: for concentration at 3 h: 3 h post infusion end
Procedure: This was a phase 1b, single-center, randomized, double-blind, double-dummy, placebo- and active-controlled, 4-period Williams design crossover study to evaluate the PK, PD, and safety of Compound A in sleep-deprived healthy volunteers. Compound A was administered as a 9-hour IV infusion.
Healthy adult male subjects aged 18 to 40 years, inclusive, who satisfied the inclusion and exclusion criteria were enrolled in the trial. On Day 1 of treatment period 1, eligible subjects were equally randomized to 4 treatment sequence groups (sequence 1 to 4) which defined the order of administration for Compound A LD, Compound A HD (both delivered as a 9-hour IV infusion), modafinil 300 mg, and placebo.
During the day before dosing on Day 1, participants were administered the KSS at scheduled timepoints. A practice MWT session was performed on Day 1 treatment period 1 (only once during the entire study) to familiarize subjects with the procedures. Study drug was administered in the clinic in the evening on Day 1 of each treatment period. Subjects underwent the MWT and KSS at specified timepoints after the start of the infusion. Subjects were required to stay awake between the MWT tests. Following completion of the IV infusion on Day 2, subjects underwent an additional MWT test. When the final MWT test and cognitive testing were completed, subjects were allowed to sleep (recovery sleep) for approximately 6 hours. PSG recording was collected during this time. Subjects were discharged from the unit after completion on Day 2 with continuing actigraphy upon discharge (to begin on Day −6 before the next treatment period). The interval between each subsequent treatment period was at least 7 days to ensure that the subject's circadian rhythm had returned to a normal cycle. Subject's vital signs, including BP, were monitored during the dosing and testing period. Blood samples for determination of Compound A plasma concentrations were collected at specified timepoints on Days 1 and 2 of each treatment period. Subjects completed the Columbia-Suicide Severity Rating Scale (C-SSRS) during screening, before study drug administration, and before discharge on Day 2 of each treatment period.
Plasma concentrations were tabulated, and descriptive statistics were calculated for each Compound A dose level and are listed in Tables 3-6 for Compound A. The mean plasma concentration versus time plots for Compound A are shown in FIG. 1.

[1] = 2.55-fold increase in dose (44 to 112 mg)

## COC(=O)N1CCC[C@H](NS(C)(=O)=O)[C@@H]1CO[C@H]1CC[C@@H](c2ccccc2)CC1 [Compound A, methyl (2R,3S)-3-((methylsulfonyl)amino)-2-(((cis-4-phenylcyclohexyl)oxy)methyl)piperidine-1-carboxylate]
[1]
  Fold increase in AUClast: 2.45 fold
  Fold increase in AUC∞: 2.46 fold
  Fold increase in Ceoi: 2.45 fold
  Fold increase in Cmax: 2.52 fold
Between 44 and 112 mg dose levels
  Dose proportionality of systemic exposure: approximately dose-proportionately; also recorded: approximately dose proportionately
By 4 hours after start of infusion, 44 mg and 112 mg
  Mean plasma concentration as share of the observed maximum concentration: more than 80%
male, human, plasma, iv, 44 mg, 44 mg 9-h IV infusion, 1 h post infusion start, read-out: Plasma concentration (GM)
  concentration at 1 h: 63.1 ng/mL
male, human, plasma, iv, 44 mg, 44 mg 9-h IV infusion, 1 h post infusion start, read-out: Plasma concentration (Mean)
  concentration at 1 h: 64.4 ng/mL
male, human, plasma, iv, 44 mg, 44 mg 9-h IV infusion, 1 h post infusion start, read-out: Plasma concentration (Median)
  concentration at 1 h: 65.5 ng/mL
male, human, plasma, iv, 44 mg, 44 mg 9-h IV infusion, 2 h post infusion start, read-out: Plasma concentration (GM)
  concentration at 2 h: 72.9 ng/mL
male, human, plasma, iv, 44 mg, 44 mg 9-h IV infusion, 2 h post infusion start, read-out: Plasma concentration (Mean)
  concentration at 2 h: 74 ng/mL
male, human, plasma, iv, 44 mg, 44 mg 9-h IV infusion, 2 h post infusion start, read-out: Plasma concentration (Median)
  concentration at 2 h: 72.6 ng/mL
male, human, plasma, iv, 44 mg, 44 mg 9-h IV infusion, 4 h post infusion start, read-out: Plasma concentration (GM)
  concentration at 4 h: 88.3 ng/mL
male, human, plasma, iv, 44 mg, 44 mg 9-h IV infusion, 4 h post infusion start, read-out: Plasma concentration (Mean)
  concentration at 4 h: 89.3 ng/mL
male, human, plasma, iv, 44 mg, 44 mg 9-h IV infusion, 4 h post infusion start, read-out: Plasma concentration (Median)
  concentration at 4 h: 88.2 ng/mL
male, human, plasma, iv, 44 mg, 44 mg 9-h IV infusion, 6 h post infusion start, read-out: Plasma concentration (GM)
  concentration at 6 h: 97.8 ng/mL
male, human, plasma, iv, 44 mg, 44 mg 9-h IV infusion, 6 h post infusion start, read-out: Plasma concentration (Mean)
  concentration at 6 h: 98.7 ng/mL
male, human, plasma, iv, 44 mg, 44 mg 9-h IV infusion, 6 h post infusion start, read-out: Plasma concentration (Median)
  concentration at 6 h: 97.4 ng/mL
male, human, plasma, iv, 44 mg, 44 mg 9-h IV infusion, 9 h post infusion start, read-out: Plasma concentration (GM)
  concentration at 9 h: 102 ng/mL
male, human, plasma, iv, 44 mg, 44 mg 9-h IV infusion, 9 h post infusion start, read-out: Plasma concentration (Mean)
  concentration at 9 h: 103 ng/mL
male, human, plasma, iv, 44 mg, 44 mg 9-h IV infusion, 9 h post infusion start, read-out: Plasma concentration (Median)
  concentration at 9 h: 101 ng/mL
male, human, plasma, iv, 44 mg, 44 mg [LD] single 9-hour IV infusion, read-out: AUClast (GM)
  AUC(0-t): 933 ng·h/mL
male, human, plasma, iv, 44 mg, 44 mg [LD] single 9-hour IV infusion, read-out: AUClast (Mean)
  AUC(0-t): 940 ng·h/mL
male, human, plasma, iv, 44 mg, 44 mg [LD] single 9-hour IV infusion, read-out: AUClast (Median)
  AUC(0-t): 888 ng·h/mL
male, human, plasma, iv, 44 mg, 44 mg [LD] single 9-hour IV infusion, read-out: AUC∞ (GM)
  AUC(0-inf): 955 ng·h/mL
male, human, plasma, iv, 44 mg, 44 mg [LD] single 9-hour IV infusion, read-out: AUC∞ (Mean)
  AUC(0-inf): 964 ng·h/mL
male, human, plasma, iv, 44 mg, 44 mg [LD] single 9-hour IV infusion, read-out: AUC∞ (Median)
  AUC(0-inf): 911 ng·h/mL
male, human, plasma, iv, 44 mg, 44 mg [LD] single 9-hour IV infusion, read-out: CL (Mean) (converted)
  clearance: 773 mL/min
male, human, plasma, iv, 44 mg, 44 mg [LD] single 9-hour IV infusion, read-out: CL (Median) (converted)
  clearance: 805 mL/min
male, human, plasma, iv, 44 mg, 44 mg [LD] single 9-hour IV infusion, read-out: Cmax (GM)
  Cmax: 106 ng/mL
male, human, plasma, iv, 44 mg, 44 mg [LD] single 9-hour IV infusion, read-out: Cmax (Mean)
  Cmax: 106 ng/mL
male, human, plasma, iv, 44 mg, 44 mg [LD] single 9-hour IV infusion, read-out: Cmax (Median)
  Cmax: 102 ng/mL
male, human, plasma, iv, 44 mg, 44 mg [LD] single 9-hour IV infusion, read-out: Vss (Mean)
  Vd: 107 L
male, human, plasma, iv, 44 mg, 44 mg [LD] single 9-hour IV infusion, read-out: Vss (Median)
  Vd: 99.2 L
male, human, plasma, iv, 44 mg, 44 mg [LD] single 9-hour IV infusion, read-out: Vz (Mean)
  Vd: 207 L
male, human, plasma, iv, 44 mg, 44 mg [LD] single 9-hour IV infusion, read-out: Vz (Median)
  Vd: 211 L
male, human, plasma, iv, 44 mg, 44 mg [LD] single 9-hour IV infusion, read-out: tmax (Mean)
  Tmax: 8.15 h
male, human, plasma, iv, 44 mg, 44 mg [LD] single 9-hour IV infusion, read-out: tmax (Median)
  Tmax: 9 h
male, human, plasma, iv, 112 mg, 112 mg 9-h IV infusion, 0.17 h post infusion end, read-out: Plasma concentration (GM)
  concentration at 0.17 h: 194 ng/mL
male, human, plasma, iv, 112 mg, 112 mg 9-h IV infusion, 0.5 h post infusion end, read-out: Plasma concentration (GM)
  concentration at 0.5 h: 122 ng/mL
male, human, plasma, iv, 112 mg, 112 mg 9-h IV infusion, 1 h post infusion end, read-out: Plasma concentration (GM)
  concentration at 1 h: 97.5 ng/mL
male, human, plasma, iv, 112 mg, 112 mg 9-h IV infusion, 2 h post infusion end, read-out: Plasma concentration (GM)
  concentration at 2 h: 56.7 ng/mL
male, human, plasma, iv, 112 mg, 112 mg 9-h IV infusion, read-out: Plasma concentration (GM)
  concentration at 3 h: 50.8 ng/mL
male, human, plasma, iv, 112 mg, 112 mg 9-h IV infusion, read-out: Plasma concentration (Median)
  concentration at 3 h: 54 ng/mL
male, human, plasma, iv, 112 mg, 112 mg 9-h IV infusion, 4 h post infusion end, read-out: Plasma concentration (GM)
  concentration at 4 h: 40.4 ng/mL
male, human, plasma, iv, 112 mg, 112 mg 9-h IV infusion, 4 h post infusion end, read-out: Plasma concentration (Median)
  concentration at 4 h: 44.7 ng/mL
male, human, plasma, iv, 112 mg, 112 mg 9-h IV infusion, 6 h post infusion end, read-out: Plasma concentration (GM)
  concentration at 6 h: 23.6 ng/mL
male, human, plasma, iv, 112 mg, 112 mg 9-h IV infusion, 6 h post infusion end, read-out: Plasma concentration (Median)
  concentration at 6 h: 23.4 ng/mL
male, human, plasma, iv, 112 mg, 112 mg 9-h IV infusion, 9 h post infusion end, read-out: Plasma concentration (GM)
  concentration at 9 h: 13 ng/mL
male, human, plasma, iv, 112 mg, 112 mg 9-h IV infusion, 9 h post infusion end, read-out: Plasma concentration (Median)
  concentration at 9 h: 11.9 ng/mL
male, human, plasma, iv, 112 mg, 112 mg [HD] single 9-hour IV infusion, read-out: AUClast (GM)
  AUC(0-t): 2300 ng·h/mL
male, human, plasma, iv, 112 mg, 112 mg [HD] single 9-hour IV infusion, read-out: AUClast (Mean)
  AUC(0-t): 2300 ng·h/mL
male, human, plasma, iv, 112 mg, 112 mg [HD] single 9-hour IV infusion, read-out: AUClast (Median)
  AUC(0-t): 2300 ng·h/mL
male, human, plasma, iv, 112 mg, 112 mg [HD] single 9-hour IV infusion, read-out: AUC∞ (GM)
  AUC(0-inf): 2360 ng·h/mL
male, human, plasma, iv, 112 mg, 112 mg [HD] single 9-hour IV infusion, read-out: AUC∞ (Mean)
  AUC(0-inf): 2370 ng·h/mL
male, human, plasma, iv, 112 mg, 112 mg [HD] single 9-hour IV infusion, read-out: AUC∞ (Median)
  AUC(0-inf): 2380 ng·h/mL
male, human, plasma, iv, 112 mg, 112 mg [HD] single 9-hour IV infusion, read-out: CL (Mean) (converted)
  clearance: 793 mL/min
male, human, plasma, iv, 112 mg, 112 mg [HD] single 9-hour IV infusion, read-out: CL (Median) (converted)
  clearance: 785 mL/min
male, human, plasma, iv, 112 mg, 112 mg [HD] single 9-hour IV infusion, read-out: Cmax (GM)
  Cmax: 266 ng/mL
male, human, plasma, iv, 112 mg, 112 mg [HD] single 9-hour IV infusion, read-out: Cmax (Mean)
  Cmax: 268 ng/mL
male, human, plasma, iv, 112 mg, 112 mg [HD] single 9-hour IV infusion, read-out: Cmax (Median)
  Cmax: 260 ng/mL
male, human, plasma, iv, 112 mg, 112 mg [HD] single 9-hour IV infusion, read-out: Vss (Mean)
  Vd: 112 L
male, human, plasma, iv, 112 mg, 112 mg [HD] single 9-hour IV infusion, read-out: Vss (Median)
  Vd: 112 L
male, human, plasma, iv, 112 mg, 112 mg [HD] single 9-hour IV infusion, read-out: Vz (Mean)
  Vd: 223 L
male, human, plasma, iv, 112 mg, 112 mg [HD] single 9-hour IV infusion, read-out: Vz (Median)
  Vd: 216 L
male, human, plasma, iv, 112 mg, 112 mg [HD] single 9-hour IV infusion, read-out: tmax (Mean)
  Tmax: 7.88 h
male, human, plasma, iv, 112 mg, 112 mg [HD] single 9-hour IV infusion, read-out: tmax (Median)
  Tmax: 9 h
male, human, plasma, after end of 9-h IV infusion, biphasic decline, read-out: Mean terminal half-life (t1/2z) (converted)
  half-life: ~3 h
